US10167262B2, “Herbicidal substituted 3-arylpyrazoles” (FMC CORPORATION, priority 2014, dated 2019)

What was measured:
Format in all cases: in vivo
[1] = test system: ducksalad (Heteranthera limosa); test: Test B flooded paddy test, plant response rating 0-100; settings: Flood, 250 g ai/ha; scale 0 to 100 (0 no effect, 100 complete control); 13 to 15 days
How it was run: (§1)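 Flooded 3 cm over soil; compound into paddy water; depth kept constant. Greenhouse 13–15 d.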

rice (Oryza sativa) = test: as above; settings: Flood, 250 g ai/ha; scale 0 to 100 (0 no effect, 100 complete control); 13 to 15 days
How it was run: as §1

[2] = test system: sedge, umbrella (small-flower umbrella sedge, Cyperus difformis); test: as above; settings: Flood, 250 g ai/ha; scale 0 to 100 (0 no effect, 100 complete control); 13 to 15 days
How it was run: as §1

[3] = test system: barnyardgrass (Echinochloa crus-galli); test: Test C pre-/postemergence greenhouse test, plant response rating 0-100
How it was run: (§2)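 Two application timings: preemergence onto seeded loam/sand soil and postemergence onto plants at the 1–4 leaf stage (2–18 cm) in peat/vermiculite medium. Formulation: non-phytotoxic solvent with surfactant. Read-out: visual control rating, 0–100, at 13–15 days after treatment.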

[4] = test system: waterhemp (common waterhemp, Amaranthus rudis); test: as above
How it was run: as §2

[5] = test system: bermudagrass (Cynodon dactylon); test: Test C postemergence greenhouse test, plant response rating 0-100; settings: for Plant response rating, Bermudagrass: 250 g ai/ha, scale 0 to 100
How it was run: (§3)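 Plants rated visually 0 (no effect) to 100 (complete control) against untreated controls after 13 to 15 days in the greenhouse, dash indicating no result. Treatment was a postemergence application of formulated chemicals at the 1- to 4-leaf stage (2 to 18 cm), in pots of peat-vermiculite medium.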

[6] = test system: canarygrass (Phalaris minor); test: as above; settings: for Plant response rating, Canarygrass: 250 g ai/ha, scale 0 to 100
How it was run: as §3

[7] = test system: cocklebur (common cocklebur, Xanthium strumarium); test: as above; settings: for Plant response rating, Cocklebur: 250 g ai/ha, scale 0 to 100
How it was run: as §3

[8] = test system: deadnettle (henbit deadnettle, Lamium amplexicaule); test: as above; settings: for Plant response rating, Deadnettle: 250 g ai/ha, scale 0 to 100
How it was run: as §3

[9] = test system: downy bromegrass (Bromus tectorum); test: as above; settings: for Plant response rating, Bromegrass, Downy: 250 g ai/ha, scale 0 to 100
How it was run: as §3

[10] = test system: goosegrass (Eleusine indica); test: as above; settings: for Plant response rating, Goosegrass: 250 g ai/ha, scale 0 to 100
How it was run: as §3

[11] = test system: green foxtail (Setaria viridis); test: as above; settings: for Plant response rating, Foxtail, Green: 250 g ai/ha, scale 0 to 100
How it was run: as §3

[12] = test system: surinam grass (Brachiaria decumbens); test: as above; settings: for Plant response rating, Surinam Grass: 250 g ai/ha, scale 0 to 100
How it was run: as §3

[13] = test system: windgrass (Apera spica-venti); test: as above; settings: for Plant response rating, Windgrass: 250 g ai/ha, scale 0 to 100
How it was run: as §3

[14] = test system: winter barley (Hordeum vulgare); test: as above; settings: for Plant response rating, Barley: 250 g ai/ha, scale 0 to 100
How it was run: as §3

[15] = test system: woolly cupgrass (Eriochloa villosa); test: as above; settings: for Plant response rating, Cupgrass, Woolly: 250 g ai/ha, scale 0 to 100
How it was run: as §3

[16] = test system: waterhemp_RES2, (ALS & HPPD resistant common waterhemp, Amaranthus rudis); test: Test E postemergence greenhouse test, plant response rating 0-100; settings: scale 0 to 100
Experimental: At the same time, plants from these crop and weed species and also waterhemp_RES1, (ALS & Triazine resistant common waterhemp, Amaranthus rudis), and waterhemp_RES2, (ALS & HPPD resistant common waterhemp, Amaranthus rudis) were planted in pots containing Redi-Earth® planting medium (Scotts Company, 14111 Scottslawn Road, Marysville, Ohio 43041) comprising spaghnum peat moss, vermiculite, wetting agent and starter nutrients were treated with postemergence applications of test chemicals formulated in the same manner. Plants ranged in height from 2 to 18 cm for postemergence treatments (1- to 4-leaf stage).
Treated plants and controls were maintained in a greenhouse for 14 to 21 days, after which time all species were compared to controls and visually evaluated. Plant response ratings, summarized in Table E, are based on a scale of 0 to 100 where 0 is no effect and 100 is complete control. A dash (-) response means no test result.

[17] = Postemergence, 250 g ai/ha, scale 0 to 100
[18] = Postemergence, 500 g ai/ha, scale 0 to 100

## CCOC(OCC)(c1cccs1)c1c[nH]nc1-c1cc(Cl)cc(Cl)c1 [Compound 27]
[1]
  Plant response rating, Ducksalad: 0
Rice (Oryza sativa)
  Plant response rating, Rice: 0
[2]
  Plant response rating, Sedge, Umbrella: 0
[3]; Postemergence, 62 g ai/ha
  Plant response rating (0 to 100), Barnyardgrass: 0
[3]; Postemergence, 125 g ai/ha, scale 0 to 100
  Plant response rating, Barnyardgrass: 0
[3]; [17]
  Plant response rating, Barnyardgrass: 0
[3]; [18]
  Plant response rating, Barnyardgrass: 10
[3]; Preemergence, 62 g ai/ha
  Plant response rating, Barnyardgrass: 0
[3]; Preemergence, 125 g ai/ha
  Plant response rating, Barnyardgrass: 0
[3]; Preemergence, 250 g ai/ha
  Plant response rating, Barnyardgrass: 0
[3]; Preemergence, 500 g ai/ha
  Plant response rating, Barnyardgrass: 0
[4]; Postemergence, 62 g ai/ha
  Plant response rating (0 to 100), Waterhemp: 95
[4]; Postemergence, 125 g ai/ha
  Plant response rating (0 to 100), Waterhemp: 98
[4]; [17]
  Plant response rating, Waterhemp: 98
[4]; [18]
  Plant response rating, Waterhemp: 100
[4]; Preemergence, 62 g ai/ha
  Plant response rating, Waterhemp: 100
[4]; Preemergence, 125 g ai/ha
  Plant response rating, Waterhemp: 100
[4]; Preemergence, 250 g ai/ha
  Plant response rating, Waterhemp: 100
[4]; Preemergence, 500 g ai/ha
  Plant response rating, Waterhemp: 100

## Cn1cc(C(=O)c2ccccc2)c(-c2cc(Cl)cc(Cl)c2)n1 [Compound 54, [3-(3,5-dichlorophenyl)-1-methyl-1H-pyrazol-4-yl]phenylmethanone]
[3]; Preemergence, 62 g ai/ha
  Plant response rating, Barnyardgrass: 0
[3]; Preemergence, 125 g ai/ha
  Plant response rating, Barnyardgrass: 0
[3]; Preemergence, 250 g ai/ha
  Plant response rating, Barnyardgrass: 0
[3]; Preemergence, 500 g ai/ha
  Plant response rating, Barnyardgrass: 0
[4]; Preemergence, 62 g ai/ha
  Plant response rating, Waterhemp: 90
[4]; Preemergence, 125 g ai/ha
  Plant response rating, Waterhemp: 95
[4]; Preemergence, 250 g ai/ha
  Plant response rating, Waterhemp: 98
[4]; Preemergence, 500 g ai/ha
  Plant response rating, Waterhemp: 100
[5]; 31 g ai/ha
  Plant response rating (0 to 100), Bermudagrass: 0
[5]; 62 g ai/ha
  Plant response rating (0 to 100), Bermudagrass: 0
[5]; 125 g ai/ha
  Plant response rating (0 to 100), Bermudagrass: 0
[5]
  Plant response rating, Bermudagrass: 0
[6]; 31 g ai/ha
  Plant response rating (0 to 100), Canarygrass: 0
[6]; 62 g ai/ha
  Plant response rating (0 to 100), Canarygrass: 0
[6]; 125 g ai/ha
  Plant response rating (0 to 100), Canarygrass: 0
[6]
  Plant response rating, Canarygrass: 0
[7]; 31 g ai/ha
  Plant response rating (0 to 100), Cocklebur: 0
[7]; 62 g ai/ha
  Plant response rating (0 to 100), Cocklebur: 0
[7]; 125 g ai/ha
  Plant response rating (0 to 100), Cocklebur: 0
[7]
  Plant response rating, Cocklebur: 0
[8]; 31 g ai/ha
  Plant response rating (0 to 100), Deadnettle: 0
[8]; 62 g ai/ha
  Plant response rating (0 to 100), Deadnettle: 0
[8]; 125 g ai/ha
  Plant response rating (0 to 100), Deadnettle: 0
[8]
  Plant response rating, Deadnettle: 5
[9]; 31 g ai/ha
  Plant response rating (0 to 100), Bromegrass, Downy: 0
[9]; 62 g ai/ha
  Plant response rating (0 to 100), Bromegrass, Downy: 0
[9]; 125 g ai/ha
  Plant response rating (0 to 100), Bromegrass, Downy: 0
[9]
  Plant response rating, Bromegrass, Downy: 0
[10]; 31 g ai/ha
  Plant response rating (0 to 100), Goosegrass: 0
[10]; 62 g ai/ha
  Plant response rating (0 to 100), Goosegrass: 0
[10]; 125 g ai/ha
  Plant response rating (0 to 100), Goosegrass: 0
[10]
  Plant response rating, Goosegrass: 0
[11]; 31 g ai/ha
  Plant response rating (0 to 100), Foxtail, Green: 0
[11]; 62 g ai/ha
  Plant response rating (0 to 100), Foxtail, Green: 0
[11]; 125 g ai/ha
  Plant response rating (0 to 100), Foxtail, Green: 0
[11]
  Plant response rating, Foxtail, Green: 0
[12]; 62 g ai/ha
  Plant response rating (0 to 100), Surinam Grass: 0
[12]; 125 g ai/ha
  Plant response rating (0 to 100), Surinam Grass: 0
[12]
  Plant response rating, Surinam Grass: 0
[13]; 62 g ai/ha
  Plant response rating (0 to 100), Windgrass: 0
[13]; 125 g ai/ha
  Plant response rating (0 to 100), Windgrass: 0
[13]
  Plant response rating, Windgrass: 0
[14]; 31 g ai/ha
  Plant response rating (0 to 100), Barley: 0
[14]; 62 g ai/ha
  Plant response rating (0 to 100), Barley: 0
[14]; 125 g ai/ha
  Plant response rating (0 to 100), Barley: 0
[14]
  Plant response rating, Barley: 0
[15]; 31 g ai/ha
  Plant response rating (0 to 100), Cupgrass, Woolly: 0
[15]; 62 g ai/ha
  Plant response rating (0 to 100), Cupgrass, Woolly: 0
[15]; 125 g ai/ha
  Plant response rating (0 to 100), Cupgrass, Woolly: 0
[15]
  Plant response rating, Cupgrass, Woolly: 0
[16]; 62 g ai/ha
  Plant response rating, Waterhemp_RES2: 80
[16]; 125 g ai/ha
  Plant response rating, Waterhemp_RES2: 85
[16]; 250 g ai/ha
  Plant response rating, Waterhemp_RES2: 85

## CCCn1cc(C(=O)c2ccccc2)c(-c2cc(Cl)cc(Cl)c2)n1 [Compound 61, [3-(3,5-dichlorophenyl)-1-propyl-1H-pyrazol-4-yl]phenylmethanone]
[5]; 31 g ai/ha
  Plant response rating (0 to 100), Bermudagrass: 0
[5]; 62 g ai/ha
  Plant response rating (0 to 100), Bermudagrass: 5
[5]; 125 g ai/ha
  Plant response rating (0 to 100), Bermudagrass: 5
[5]
  Plant response rating, Bermudagrass: 5
[6]; 31 g ai/ha
  Plant response rating (0 to 100), Canarygrass: 0
[6]; 62 g ai/ha
  Plant response rating (0 to 100), Canarygrass: 0
[6]; 125 g ai/ha
  Plant response rating (0 to 100), Canarygrass: 0
[6]
  Plant response rating, Canarygrass: 0
[7]; 31 g ai/ha
  Plant response rating (0 to 100), Cocklebur: 10
[7]; 62 g ai/ha
  Plant response rating (0 to 100), Cocklebur: 10
[7]; 125 g ai/ha
  Plant response rating (0 to 100), Cocklebur: 20
[7]
  Plant response rating, Cocklebur: 35
[8]; 31 g ai/ha
  Plant response rating (0 to 100), Deadnettle: 0
[8]; 62 g ai/ha
  Plant response rating (0 to 100), Deadnettle: 0
[8]; 125 g ai/ha
  Plant response rating (0 to 100), Deadnettle: 0
[8]
  Plant response rating, Deadnettle: 0
[9]; 31 g ai/ha
  Plant response rating (0 to 100), Bromegrass, Downy: 0
[9]; 62 g ai/ha
  Plant response rating (0 to 100), Bromegrass, Downy: 0
[9]; 125 g ai/ha
  Plant response rating (0 to 100), Bromegrass, Downy: 0
[9]
  Plant response rating, Bromegrass, Downy: 0
[10]; 31 g ai/ha
  Plant response rating (0 to 100), Goosegrass: 0
[10]; 62 g ai/ha
  Plant response rating (0 to 100), Goosegrass: 0
[10]; 125 g ai/ha
  Plant response rating (0 to 100), Goosegrass: 0
[10]
  Plant response rating, Goosegrass: 5
[11]; 31 g ai/ha
  Plant response rating (0 to 100), Foxtail, Green: 0
[11]; 62 g ai/ha
  Plant response rating (0 to 100), Foxtail, Green: 0
[11]; 125 g ai/ha
  Plant response rating (0 to 100), Foxtail, Green: 0
[11]
  Plant response rating, Foxtail, Green: 0
[12]; 62 g ai/ha
  Plant response rating (0 to 100), Surinam Grass: 0
[12]; 125 g ai/ha
  Plant response rating (0 to 100), Surinam Grass: 0
[12]
  Plant response rating, Surinam Grass: 0
[13]; 62 g ai/ha
  Plant response rating (0 to 100), Windgrass: 0
[13]; 125 g ai/ha
  Plant response rating (0 to 100), Windgrass: 0
[13]
  Plant response rating, Windgrass: 0
[14]; 31 g ai/ha
  Plant response rating (0 to 100), Barley: 0
[14]; 62 g ai/ha
  Plant response rating (0 to 100), Barley: 0
[14]; 125 g ai/ha
  Plant response rating (0 to 100), Barley: 0
[14]
  Plant response rating, Barley: 0
[15]; 31 g ai/ha
  Plant response rating (0 to 100), Cupgrass, Woolly: 5
[15]; 62 g ai/ha
  Plant response rating (0 to 100), Cupgrass, Woolly: 10
[15]; 125 g ai/ha
  Plant response rating (0 to 100), Cupgrass, Woolly: 10
[15]
  Plant response rating, Cupgrass, Woolly: 15
[16]; 31 g ai/ha
  Plant response rating, Waterhemp_RES2: 20
[16]; 125 g ai/ha
  Plant response rating, Waterhemp_RES2: 40
[16]; 500 g ai/ha
  Plant response rating, Waterhemp_RES2: 95
